# Assays:
# Format in all cases: cell-based
# [1] = target: T1, CFTR (Homo sapiens, UniProt P13569); assay: Short-circuit current recordings on primary HBE cells from non-CF individuals
# T1 construct: primary human bronchial epithelial (HBE) cells, from non-CF individuals; endogenous in cells; host or cells: primary human bronchial epithelial cells from non-CF individuals
# Text: Subsequently, the ability of compounds to elicit CFTR-mediated chloride secretion was verified on primary human bronchial epithelial (HBE) cells, from non-CF individuals, in short-circuit current experiments. In this respect, it should be noticed that potentiators are also able to stimulate wild-type CFTR, provided that a submaximal cAMP-dependent stimulation is applied.[20],[22] Accordingly, cells were stimulated with a submaximal concentration of the cAMP analogue, CPT-cAMP, followed by increasing concentrations of the potentiator hit.[20],[22]
# Finally, potentiator 39 and VX-770 were further evaluated in primary HBE cells from non-CF individuals, using short-circuit current measurements, to assess the ability of compounds to maximally activate CFTR function in the presence of a submaximal cAMP stimulation. After the addition of amiloride to inhibit sodium absorption through the ENaC channel, the potentiators were added at the maximal effective concentration (1 μM) after which epithelia were stimulated with a submaximal concentration of CPT-cAMP (5 μM), followed by a maximal concentration of the cAMP analogue (100 μM) (Figure 8). We then measured the extent of CFTR-mediated chloride current elicited by submaximal cAMP stimulation in the presence of a potentiator and compared it to total CFTR-mediated chloride current, determined as the current inhibited by CFTR inhibitor-172. In parallel, other epithelia were stimulated only with the two concentrations of the cAMP analogue, in the absence of a potentiator.
# Primary bronchial epithelial cells were cultured as previously described.[58] In brief, epithelial cells were cultured in a serum-free medium (LHC9 mixed with RPMI 1640, 1:1) supplemented with hormones and supplements to support cell number amplification. Then, the cells were seeded at high density on porous membranes (500,000 cells for 1 cm^2 Snapwell inserts, for Ussing chamber studies; 200,000 cells for 0.33 cm^2 Mini-Transwell inserts, for TEER/PD measurements). After 24 h, the serum-free medium was replaced with Dulbecco’s modified Eagle’s medium (DMEM)/Ham’s F12 containing 2% fetal bovine serum (FBS) plus hormones and supplements. Differentiation of cells to form a tight epithelium was monitored by measuring transepithelial electrical resistance and potential difference with an epithelial voltohmmeter (EVOM1, World Precision Instruments). […]
# Differentiated bronchial epithelia on Snapwell inserts were mounted in a Ussing chamber with internal fluid circulation. […] The short-circuit current was recorded with a PowerLab 4/25 (ADInstruments) analog-to-digital converter connected to a personal computer.
# [2] = target: T2, F508del-CFTR (Homo sapiens, UniProt P13569, DEL508-508); assay: HS-YFP-based assay for CFTR activity on F508del-CFTR FRT cells rescued at 32 °C for 24 h; design: expressed in transfected cells; key to Emax: fold increase in F508del-CFTR rescue relative to hit 3 (normalized)
# T2 sequence (P13569 with tags, fused parts or gaps DEL508-508): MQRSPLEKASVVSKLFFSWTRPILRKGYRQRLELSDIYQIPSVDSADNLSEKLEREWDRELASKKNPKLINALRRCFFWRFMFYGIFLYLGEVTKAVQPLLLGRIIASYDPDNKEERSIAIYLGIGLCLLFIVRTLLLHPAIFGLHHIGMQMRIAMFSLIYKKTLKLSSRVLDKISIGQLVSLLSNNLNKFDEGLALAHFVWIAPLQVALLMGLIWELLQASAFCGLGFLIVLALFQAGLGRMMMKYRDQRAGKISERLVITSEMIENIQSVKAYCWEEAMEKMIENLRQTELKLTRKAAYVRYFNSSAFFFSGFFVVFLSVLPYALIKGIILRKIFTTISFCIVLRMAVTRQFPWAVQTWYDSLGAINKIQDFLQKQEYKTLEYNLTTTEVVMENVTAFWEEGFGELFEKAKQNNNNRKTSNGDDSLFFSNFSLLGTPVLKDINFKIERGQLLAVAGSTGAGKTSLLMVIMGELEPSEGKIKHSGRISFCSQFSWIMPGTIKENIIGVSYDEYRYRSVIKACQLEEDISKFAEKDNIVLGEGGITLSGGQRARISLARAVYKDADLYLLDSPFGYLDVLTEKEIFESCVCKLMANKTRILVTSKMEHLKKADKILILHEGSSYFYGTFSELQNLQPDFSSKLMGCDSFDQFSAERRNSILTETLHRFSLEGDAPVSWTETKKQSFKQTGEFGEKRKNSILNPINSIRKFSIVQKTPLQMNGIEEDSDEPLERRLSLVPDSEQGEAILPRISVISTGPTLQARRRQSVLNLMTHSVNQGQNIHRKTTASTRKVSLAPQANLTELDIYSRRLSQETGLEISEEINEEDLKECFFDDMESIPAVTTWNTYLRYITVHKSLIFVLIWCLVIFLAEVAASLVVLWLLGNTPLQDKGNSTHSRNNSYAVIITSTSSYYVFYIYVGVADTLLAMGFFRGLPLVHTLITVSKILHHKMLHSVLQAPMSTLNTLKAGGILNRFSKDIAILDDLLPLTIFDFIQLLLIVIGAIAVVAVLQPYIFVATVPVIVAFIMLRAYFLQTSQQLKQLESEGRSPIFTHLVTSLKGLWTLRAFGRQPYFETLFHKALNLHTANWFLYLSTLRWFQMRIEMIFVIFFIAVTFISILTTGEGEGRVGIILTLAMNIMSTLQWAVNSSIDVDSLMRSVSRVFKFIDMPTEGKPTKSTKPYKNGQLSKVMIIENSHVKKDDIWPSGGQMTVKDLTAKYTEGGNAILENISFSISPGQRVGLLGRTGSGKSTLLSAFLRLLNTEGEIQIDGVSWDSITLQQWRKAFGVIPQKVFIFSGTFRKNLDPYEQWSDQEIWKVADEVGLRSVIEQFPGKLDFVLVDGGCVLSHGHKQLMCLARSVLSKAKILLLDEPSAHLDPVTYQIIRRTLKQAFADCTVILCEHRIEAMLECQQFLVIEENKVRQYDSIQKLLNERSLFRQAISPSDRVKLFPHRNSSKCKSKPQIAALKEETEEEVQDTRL
# Description: The chemical library was screened in duplicate on a Fischer rat thyroid (FRT) cell line, stably coexpressing F508del-CFTR and the halide-sensitive yellow fluorescent protein, HS-YFP.[23],[34],[35] To overcome the F508del trafficking defect, cells were initially incubated for 24 h at 32 °C and then acutely treated (15–30 min) with a single compound (5 μM) in combination with forskolin (10 μM). After stimulation, the F508del-CFTR activity in the plasma membrane was calculated by measuring the rate of fluorescence quenching arising from iodide influx.[34] This activity was compared to that of wells containing forskolin alone (negative control) or forskolin plus VX-770 (1 μM, as a positive control) (Figure 2A). Analysis of screening performance with the Z′ method gave a score of 0.6, which can be considered optimal for this type of assay. The activity scores for each compound were then plotted as an ordered distribution (Figure 2B). All compounds whose average activity calculated from the two rounds of screening was greater than 185% with respect to the negative control (i.e., forskolin alone) were considered as primary hits.
# The primary hits were confirmed by testing them at different concentrations, in order to extrapolate the dose–response relationship. First, we focused on the F508del mutant. The compounds were tested in the low micromolar range, in the presence of forskolin (10 μM), on F508del-CFTR FRT cells following rescue of the trafficking defect by low-temperature incubation, as done for the primary screening. The most interesting hits were subsequently tested for their ability to overcome the more severe gating defect of pure class III mutant using FRT cells stably expressing G551D-CFTR (Figure 3B).
# The role of the heteroaryl group (A) acylating the position 2 of the tetrahydro-γ-carboline was initially explored by modifying the substituent on the pyrazolyl residue and replacing the pyrazole with other rings, while keeping the 8-methoxy carboline moiety unmodified. The activity of each compound is described in terms of normalized maximal efficacy (Emax), the maximum fold increase in the rescue of F508del-CFTR activity with respect to hit 3, and potency (EC50), the concentration producing half-maximal efficacy.
# FRT cells stably expressing mutant F508del-CFTR or G551D-CFTR and the halide-sensitive yellow fluorescent protein (HS-YFP) YFP-H148Q/I152L and CFBE41o-cells stably expressing F508del-CFTR and HS-YFP were generated as previously described.[21],[57] FRT cells were cultured using the Coon’s modification of Ham’s F12 medium, while CFBE41o-cells were cultured in the modified Eagle’s medium. Media were supplemented with 10% fetal calf serum, 2 mM L-glutamine, 100 U/mL of penicillin, and […] of streptomycin. For functional assays of CFTR activity based on the HS-YFP assays, CFBE41o- or FRT cells were plated (50,000 cells/well) on clear-bottom 96-well black microplates (Corning Life Sciences, Acton, MA). The following day, cells were assayed. In the case of FRT cells expressing F508del-CFTR, plates were kept at 32 °C (or treated with correctors at 37 °C where indicated) for an additional 24 h to rescue the mutant trafficking defect, before assays.
# Prior assay, cells were washed with phosphate-buffered saline (PBS) containing (in mM) 137 NaCl, 2.7 KCl, 8.1 Na2HPO4, 1.5 KH2PO4, 1 CaCl2, and 0.5 MgCl2. Cells were then incubated for 25 min with 60 μL of PBS plus forskolin (20 μM) and test compounds (at the desired concentration) to stimulate mutant CFTR. Cells were then transferred to microplate readers (FluoStar Optima; BMG Labtech, Offenburg, Germany) for CFTR activity determination. The plate readers were equipped with high-quality excitation (HQ500/20X: 500 ± 10 nm) and emission (HQ535/30M: 535 ± 15 nm) filters for YFP (Chroma Technology). […]
# [3] = target: T2, F508del-CFTR; assay: HS-YFP assay on F508del-CFTR CFBE41o- cells, acute stimulation; design: expressed in transfected cells; conditions: acute stimulation in the presence of forskolin, Figure 4A
# Description: The preliminary activity of these three hits was further evaluated in secondary screening assays. Although featuring the same common scaffold, in order to possibly discriminate the most interesting hit for further structural investigations, the compounds belonging to the family of tetrahydro-γ-carbolines were tested on more relevant cell models. First, the hits were tested on an immortalized bronchial epithelial cell line (CFBE41o-) stably expressing F508del-CFTR and HS-YFP. […]
# Prior assay, cells were washed with phosphate-buffered saline (PBS) containing (in mM) 137 NaCl, 2.7 KCl, 8.1 Na2HPO4, 1.5 KH2PO4, 1 CaCl2, and 0.5 MgCl2. […] Cells were then transferred to microplate readers (FluoStar Optima; BMG Labtech, Offenburg, Germany) for CFTR activity determination. The plate readers were equipped with high-quality excitation (HQ500/20X: 500 ± 10 nm) and emission (HQ535/30M: 535 ± 15 nm) filters for YFP (Chroma Technology). The assay consisted of a continuous 14 s fluorescence reading, 2 s before and 12 s after injection of 165 μL of an iodide-containing solution (PBS with Cl^– replaced by I^–; final I^– concentration 100 mM). Data were normalized to the initial background-subtracted fluorescence. […]
# T1 sequence (P13569 whole entry): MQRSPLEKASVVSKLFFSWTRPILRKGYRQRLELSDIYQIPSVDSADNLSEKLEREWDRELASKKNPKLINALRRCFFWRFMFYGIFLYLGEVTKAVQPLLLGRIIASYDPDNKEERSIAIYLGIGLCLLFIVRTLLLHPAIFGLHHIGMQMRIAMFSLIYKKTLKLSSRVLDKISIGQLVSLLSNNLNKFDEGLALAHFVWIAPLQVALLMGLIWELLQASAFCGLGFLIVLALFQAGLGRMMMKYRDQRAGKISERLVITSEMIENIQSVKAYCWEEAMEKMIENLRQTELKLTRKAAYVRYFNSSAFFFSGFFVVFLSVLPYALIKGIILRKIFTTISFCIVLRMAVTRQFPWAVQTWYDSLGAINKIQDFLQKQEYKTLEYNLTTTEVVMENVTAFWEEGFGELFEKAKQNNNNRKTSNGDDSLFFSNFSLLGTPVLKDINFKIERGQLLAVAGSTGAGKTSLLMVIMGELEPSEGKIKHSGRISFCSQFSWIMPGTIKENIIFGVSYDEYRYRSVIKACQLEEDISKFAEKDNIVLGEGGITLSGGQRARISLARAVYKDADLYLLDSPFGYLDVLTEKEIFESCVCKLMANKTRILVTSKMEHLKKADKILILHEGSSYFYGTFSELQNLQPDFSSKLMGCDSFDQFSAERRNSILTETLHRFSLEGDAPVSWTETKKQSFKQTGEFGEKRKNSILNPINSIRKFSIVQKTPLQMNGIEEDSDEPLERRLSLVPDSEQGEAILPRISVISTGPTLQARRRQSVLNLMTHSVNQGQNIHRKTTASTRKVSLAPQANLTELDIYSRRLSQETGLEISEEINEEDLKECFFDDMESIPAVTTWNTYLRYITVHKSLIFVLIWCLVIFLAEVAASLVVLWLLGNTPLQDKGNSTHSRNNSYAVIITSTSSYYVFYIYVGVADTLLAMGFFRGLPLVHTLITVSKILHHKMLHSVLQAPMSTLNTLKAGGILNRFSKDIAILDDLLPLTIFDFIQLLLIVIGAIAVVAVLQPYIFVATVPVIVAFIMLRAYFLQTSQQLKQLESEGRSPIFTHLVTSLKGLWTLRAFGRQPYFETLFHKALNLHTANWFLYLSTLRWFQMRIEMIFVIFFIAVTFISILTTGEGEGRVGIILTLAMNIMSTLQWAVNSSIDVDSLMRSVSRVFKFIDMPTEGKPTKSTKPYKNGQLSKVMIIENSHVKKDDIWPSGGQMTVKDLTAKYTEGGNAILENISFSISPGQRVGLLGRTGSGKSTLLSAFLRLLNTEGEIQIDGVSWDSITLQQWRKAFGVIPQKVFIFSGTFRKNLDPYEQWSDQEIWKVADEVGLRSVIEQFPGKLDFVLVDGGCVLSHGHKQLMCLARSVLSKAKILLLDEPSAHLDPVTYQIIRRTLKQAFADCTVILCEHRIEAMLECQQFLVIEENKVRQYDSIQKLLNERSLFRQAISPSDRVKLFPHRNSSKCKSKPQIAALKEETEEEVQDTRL
"comparison of effectiveness of potentiators ([1]; 1 μM for both compounds, Figure 8B)","increase of the fraction of CFTR-mediated chloride current activated by submaximal cAMP stimulation ([1]; potentiator 1 μM, CPT-cAMP 5 μM, versus no potentiator)","EC50 ([2]; F508del-CFTR FRT cells rescued at 32 °C for 24 h, plus forskolin, mean ± SD (n = 3–6), n.a.: not active (up to 20 μM)) [µM]","Emax ([2]; supplementary csv, same data as Tables 1–3)",dose-dependent activation of mutant CFTR [3],SMILES
similarly effective,more than 2 fold,,,,"CC(C)(C)c1cc(C(C)(C)C)c(NC(=O)c2c[nH]c3ccccc3c2=O)cc1O [VX-770, reference compound]"
,,0.12 ± 0.014,1.04 ± 0.07,the most effective,"CN(C)c1ccc2cc(C(=O)N3CCc4[nH]c5ccccc5c4C3)[nH]c2c1 [Compound 1, (6-(Dimethylamino)-1H-indol-2-yl)-(1,3,4,5-tetrahydro-2H-pyrido[4,3-b]indol-2-yl)methanone]"

# From PMC8011931, “Identification, Structure–Activity Relationship, and Biological Characterization of 2,3,4,5-Tetrahydro-1H-pyrido[4,3-b]indoles as a Novel Class of CFTR Potentiators” (Journal of Medicinal Chemistry, 2020)
